USRE33699E, “Growth hormone-releasing factor analogs” (International Minerals & Chemical Corp., priority 1990, dated 1991)
Square brackets hold non-standard residues; d marks the D form. Peptide text beside a SMILES is read from it. Nle = CCCC[C@H](N)C(=O)O

Tested on: rat pituitary cells
Assay: Bioassay of hGRF analogs: stimulation of growth hormone release in rat pituitary cells in tissue culture
Format: cell-based
Details: for Dose Needed to Release 2.01 μg/ml of GH: 2.01 μg/ml = GH released at the ED50 of hGRF; for Dose Needed to Release 2.01 μg/ml of GH / Relative Maximum Activity (% of hGRF): from ALLFIT curves; for Potency: (ED50 of hGRF)/(Dose required to give same response as ED50 of hGRF)
Description: The assay for biological activity, which is based on the ability to stimulate release of growth hormone in rat pituitary cells in tissue culture, has been described in detail (Culler, M. D.; Kenjo, T.: Obara, N.; Arimuar, A., Stimulation of cAMP. Accumulation by Human Pancreatic GH-Releasing Factor(1-44). Am. J. Physiol. 1984, 247 (Endocrinol.Metab. 10). E609-E615.
ALLFIT, the 4-parameter logistic curve fitting program available from the Biomedical Computer Technology Information Center, Vanderbilt Medical Center, Nashville Tenn., was used to determine ED50 and maximal stimulated values from the data. In several instances, the amount of GH released reached a maximum value and decreased with further increasing doses of the hGRF analogs. To simplify the data analysis, these values were not used in the calculations. The calculated maximal responses, the doses of the analog required to release the amount of GH released at the ED50 of the standard (hGRF) and the potencies of the analogs relative to hGRF, are given in Table 2. Generally all novel analogs were fully active and were able to stimulate the release of growth hormone with maximal values of GH release being within 80% of the value for natural hGRF.

| SMILES | Dose Needed to Release 2.01 μg/ml of GH [nM] | Potency [%] | Relative Maximum Activity (% of hGRF) | Potency (Asp^8, Nle^27 ]) [%] | Potency (Asp^8, Asn^25, Nle^27 ]) [%] |
| --- | --- | --- | --- | --- | --- |
| CCCC[C@H](NC(=O)[C@@H](NC(=O)[C@H](CC(N)=O)NC(=O)[C@H](CCC(N)=O)NC(=O)[C@H](CC(C)C)NC(=O)[C@H](CC(C)C)NC(=O)[C@H](CCCCN)NC(=O)[C@H](CCCNC(=N)N)NC(=O)[C@H](C)NC(=O)[C@H](CO)NC(=O)[C@H](CC(C)C)NC(=O)[C@H](CCC(N)=O)NC(=O)CNC(=O)[C@H](CC(C)C)NC(=O)[C@@H](NC(=O)[C@H](CCCCN)NC(=O)[C@H](CCCNC(=N)N)NC(=O)[C@H](Cc1ccc(O)cc1)NC(=O)[C@H](CO)NC(=O)[C@H](CC(N)=O)NC(=O)[C@@H](NC(=O)[C@H](Cc1ccccc1)NC(=O)[C@@H](NC(=O)[C@H](C)NC(=O)[C@H](CC(N)=O)NC(=O)[C@H](C)NC(=O)[C@@H](N)Cc1ccc(O)cc1)[C@@H](C)CC)[C@@H](C)O)C(C)C)[C@@H](C)CC)C(=O)N[C@@H](CO)C(=O)N[C@@H](CCCNC(=N)N)C(=O)N[C@@H](CCC(N)=O)C(=O)N[C@@H](CCC(N)=O)C(N)=O [[Asn^3, Asn^25, Nle^27]-hGRF(1-31)--NH2, [Asn^3,Asn^25,Nle^27]-hGRF (1-31)--NH2] (H-YANAIFTNSYRKVLGQLSARKLLQNI[Nle]SRQQ-NH2) | 1.54 | 21 | 101 % of hGRF |  |  |
| CCCC[C@H](NC(=O)[C@@H](NC(=O)[C@H](CC(=O)O)NC(=O)[C@H](CCC(N)=O)NC(=O)[C@H](CC(C)C)NC(=O)[C@H](CC(C)C)NC(=O)[C@H](CCCCN)NC(=O)[C@H](CCCNC(=N)N)NC(=O)[C@H](C)NC(=O)[C@H](CO)NC(=O)[C@H](CC(C)C)NC(=O)[C@H](CCC(N)=O)NC(=O)CNC(=O)[C@H](CC(C)C)NC(=O)[C@@H](NC(=O)[C@H](CCCCN)NC(=O)[C@H](CCCNC(=N)N)NC(=O)[C@H](Cc1ccc(O)cc1)NC(=O)[C@H](CO)NC(=O)[C@H](CC(=O)O)NC(=O)[C@@H](NC(=O)[C@H](Cc1ccccc1)NC(=O)[C@@H](NC(=O)[C@H](C)NC(=O)[C@H](CC(N)=O)NC(=O)[C@H](C)NC(=O)[C@@H](N)Cc1ccc(O)cc1)[C@@H](C)CC)[C@@H](C)O)C(C)C)[C@@H](C)CC)C(=O)N[C@@H](CO)C(=O)N[C@@H](CCCNC(=N)N)C(=O)N[C@@H](CCC(N)=O)C(=O)N[C@@H](CCC(N)=O)C(N)=O [[Asn^3, Asp^8, Nle^27]-hGRF(1-31)--NH2, [Asn^3,Asp^8,Nle^27]-hGRF(1-31)--NH2] (H-YANAIFTDSYRKVLGQLSARKLLQDI[Nle]SRQQ-NH2) | 6.74 | 3 | 107 % of hGRF | 5 |  |
| CCCC[C@H](NC(=O)[C@@H](NC(=O)[C@H](CC(=O)O)NC(=O)[C@H](CCC(N)=O)NC(=O)[C@H](CC(C)C)NC(=O)[C@H](CC(C)C)NC(=O)[C@H](CCCCN)NC(=O)[C@H](CCCNC(=N)N)NC(=O)[C@H](C)NC(=O)[C@H](CO)NC(=O)[C@H](CC(C)C)NC(=O)[C@H](CCC(N)=O)NC(=O)CNC(=O)[C@H](CC(C)C)NC(=O)[C@@H](NC(=O)[C@H](CCCCN)NC(=O)[C@H](CCCNC(=N)N)NC(=O)[C@H](Cc1ccc(O)cc1)NC(=O)[C@H](CO)NC(=O)[C@H](CC(N)=O)NC(=O)[C@@H](NC(=O)[C@H](Cc1ccccc1)NC(=O)[C@@H](NC(=O)[C@H](C)NC(=O)[C@H](CC(N)=O)NC(=O)[C@H](C)NC(=O)[C@@H](N)Cc1ccc(O)cc1)[C@@H](C)CC)[C@@H](C)O)C(C)C)[C@@H](C)CC)C(=O)N[C@@H](CO)C(=O)N[C@@H](CCCNC(=N)N)C(=O)N[C@@H](CCC(N)=O)C(=O)N[C@@H](CCC(N)=O)C(N)=O [[Asn^3, Nle^27]-hGRF(1-31)--NH2] (H-YANAIFTNSYRKVLGQLSARKLLQDI[Nle]SRQQ-NH2) | 0.58 | 55 | 93 % of hGRF |  |  |
| CCCC[C@H](NC(=O)[C@@H](NC(=O)[C@H](CC(N)=O)NC(=O)[C@H](CCC(N)=O)NC(=O)[C@H](CC(C)C)NC(=O)[C@H](CC(C)C)NC(=O)[C@H](CCCCN)NC(=O)[C@H](CCCNC(=N)N)NC(=O)[C@H](C)NC(=O)[C@H](CO)NC(=O)[C@H](CC(C)C)NC(=O)[C@H](CCC(N)=O)NC(=O)CNC(=O)[C@H](CC(C)C)NC(=O)[C@@H](NC(=O)[C@H](CCCCN)NC(=O)[C@H](CCCNC(=N)N)NC(=O)[C@H](Cc1ccc(O)cc1)NC(=O)[C@H](CO)NC(=O)[C@H](CC(=O)O)NC(=O)[C@@H](NC(=O)[C@H](Cc1ccccc1)NC(=O)[C@@H](NC(=O)[C@H](C)NC(=O)[C@H](CC(N)=O)NC(=O)[C@H](C)NC(=O)[C@@H](N)Cc1ccc(O)cc1)[C@@H](C)CC)[C@@H](C)O)C(C)C)[C@@H](C)CC)C(=O)N[C@@H](CO)C(=O)N[C@@H](CCCNC(=N)N)C(=O)N[C@@H](CCC(N)=O)C(=O)N[C@@H](CCC(N)=O)C(N)=O [[Asn^3,Asp^8,Asn^25,Nle^27]-hGRF(1-31)--NH2] (H-YANAIFTDSYRKVLGQLSARKLLQNI[Nle]SRQQ-NH2) | 12.05 | 5 | 94 % of hGRF |  | 3 |
| CCCC[C@H](NC(=O)[C@@H](NC(=O)[C@H](CC(N)=O)NC(=O)[C@H](CCC(N)=O)NC(=O)[C@H](CC(C)C)NC(=O)[C@H](CC(C)C)NC(=O)[C@H](CCCCN)NC(=O)[C@H](CCCNC(=N)N)NC(=O)[C@H](C)NC(=O)[C@H](CO)NC(=O)[C@H](CC(C)C)NC(=O)[C@H](CCC(N)=O)NC(=O)CNC(=O)[C@H](CC(C)C)NC(=O)[C@@H](NC(=O)[C@H](CCCCN)NC(=O)[C@H](CCCNC(=N)N)NC(=O)[C@H](Cc1ccc(O)cc1)NC(=O)[C@H](CO)NC(=O)[C@H](CC(N)=O)NC(=O)[C@@H](NC(=O)[C@H](Cc1ccccc1)NC(=O)[C@@H](NC(=O)[C@H](C)NC(=O)[C@H](CC(=O)O)NC(=O)[C@H](C)NC(=O)[C@@H](N)Cc1ccc(O)cc1)[C@@H](C)CC)[C@@H](C)O)C(C)C)[C@@H](C)CC)C(=O)N[C@@H](CO)C(=O)N[C@@H](CCCNC(=N)N)C(=O)N[C@@H](CCC(N)=O)C(=O)N[C@@H](CCC(N)=O)C(N)=O [[Asn^25, Nle^27]-hGRF(1-31)--NH2, [Asn^25,Nle^27]-hGRF(1-31)--NH2] (H-YADAIFTNSYRKVLGQLSARKLLQNI[Nle]SRQQ-NH2) | 0.12 | 267 | 96 % of hGRF |  |  |
| CCCC[C@H](NC(=O)[C@@H](NC(=O)[C@H](CC(N)=O)NC(=O)[C@H](CCC(N)=O)NC(=O)[C@H](CC(C)C)NC(=O)[C@H](CC(C)C)NC(=O)[C@H](CCCCN)NC(=O)[C@H](CCCNC(=N)N)NC(=O)[C@H](C)NC(=O)[C@H](CO)NC(=O)[C@H](CC(C)C)NC(=O)[C@H](CCC(N)=O)NC(=O)CNC(=O)[C@H](CC(C)C)NC(=O)[C@@H](NC(=O)[C@H](CCCCN)NC(=O)[C@H](CCCNC(=N)N)NC(=O)[C@H](Cc1ccc(O)cc1)NC(=O)[C@H](CO)NC(=O)[C@H](CC(=O)O)NC(=O)[C@@H](NC(=O)[C@H](Cc1ccccc1)NC(=O)[C@@H](NC(=O)[C@H](C)NC(=O)[C@H](CC(=O)O)NC(=O)[C@H](C)NC(=O)[C@@H](N)Cc1ccc(O)cc1)[C@@H](C)CC)[C@@H](C)O)C(C)C)[C@@H](C)CC)C(=O)N[C@@H](CO)C(=O)N[C@@H](CCCNC(=N)N)C(=O)N[C@@H](CCC(N)=O)C(=O)N[C@@H](CCC(N)=O)C(N)=O [[Asp^8, Asn^25, Nle^27]-hGRF(1-31)--NH2, [Asp^8,Asn^25,Nle^27]-hGRF(1-31)--NH2] (H-YADAIFTDSYRKVLGQLSARKLLQNI[Nle]SRQQ-NH2) | 0.42 | 76 | 87 % of hGRF |  |  |
